Data: the SangsterLogP compilation

Assays:
[1] = method code SF, from DOI: 10.1584/jpestics.12.445
[2] = method code SF-RC, from DOI: 10.1021/jf60186a044, PMID: 4688915
[3] = not given; remark: listed apart in the source
[4] = method code SF-AS, from DOI: 10.1016/0378-5173(86)90115-8
[5] = method code SF-AS, from DOI: 10.1016/s0969-8051(99)00063-3, PMID: 10628565; conditions: pH 7.0
[6] = method code SF-HPLC, from DOI: 10.1002/ps.2780280108
[7] = method code SF-AS, from DOI: 10.1248/cpb.32.4084, PMID: 6099228; conditions: pH 7.4
[8] = method code SF, from Wang, L.; Li, H.; Wang, X.; Zhang, Z. (1993). Determination of aqueous solubilities and partition coefficients of substitutive ethylketone congeners by generator column. Huanjing Huaxue, 12(2)151-154.
[9] = not given; remark: listed apart in the source
[10] = method code SF-RC, from DOI: 10.1021/jm00238a003, PMID: 1120999; conditions: pH 7.0
[11] = not given; remark: listed apart in the source
[12] = method code SF-AS, from DOI: 10.1016/s0021-9673(00)91570-x; conditions: pH 3.4
[13] = method code SF-GLC, from DOI: 10.1016/s0021-9673(00)91779-5; conditions: pH 7.0
[14] = method code SF-HPLC, from DOI: 10.1023/a:1013643013244, PMID: 11837695; conditions: pH 6.4
[15] = method code SF-AS, from DOI: 10.1021/jm00040a014, PMID: 8035429; conditions: pH 7.4
[16] = not given; remark: listed apart in the source
[17] = method code SF-AS, from DOI: 10.1002/jps.2600611027, PMID: 5072421
[18] = not given; remark: listed apart in the source
[19] = not given; remark: listed apart in the source
[20] = method code SF-AS, from DOI: 10.1002/qsar.19830020405; conditions: pH 2.0
[21] = method code SF-AS, from DOI: 10.1016/0223-5234(96)88239-0; conditions: pH 2.0
[22] = method code SF-AS, from DOI: 10.1002/pauz.19770060602
[23] = method code SF, from DOI: 10.1016/j.ejmech.2012.08.015, PMID: 22960698
[24] = method code SF-ILT, from DOI: 10.1002/ardp.19763091008, PMID: 1008678
[25] = not given; remark: listed apart in the source
[26] = method code SF-AS, from PMID: 7912440
[27] = not given; remark: listed apart in the source
[28] = method code SF-HPLC, from DOI: 10.1016/0378-5173(86)90195-x; conditions: pH 7.4
[29] = not given; remark: listed apart in the source
[30] = method code SF-AS, from DOI: 10.1213/00000539-199008000-00008, PMID: 2375517
[31] = method code SF-HPLC, from PMID: 1854437; conditions: pH 7.4
[32] = method code SF, from DOI: 10.1002/jps.2600830715, PMID: 7965680
[33] = method code SF, from DOI: 10.1021/jm00140a005, PMID: 7035668; conditions: pH 12.0
[34] = not given; remark: listed apart in the source

SMILES: C=C(c1ccccc1OCCCCCO)n1ccnc1
- logP [1]: 2.89

SMILES: N#Cc1ccc(OCC2CCN(CCF)CC2)cc1
- logP: 2.8

SMILES: Cc1ccc(C(c2ccc(C)cc2)C(Cl)(Cl)Cl)cc1
- logP [2]: 3.57

SMILES: NC(=O)c1c(-c2ccc(OCCCc3c[nH]cn3)cc2)no[n+]1[O-]
- logP [3]: 1.57

SMILES: CCCCCC(=O)N(C)c1ccc(S(=O)(=O)N(C)C)cc1
- logP [4]: 2.16

SMILES: O=c1[nH]c(Nc2ccccc2)nc2c1ncn2CC(O)CO (stereo not given)
- logD [5]: 0.4

SMILES: COC(=O)c1c(C)[nH]c(-c2cc(Cl)ccn2)c1C(=O)OC
- logP [6]: 2.63

SMILES: CCc1ccc(NC(=O)CN2CCCCC2)cc1
- logD [7]: 3.52

SMILES: O=C(CN1CCCCC1)Nc1ccc(Cl)cc1
- logD [7]: 3.26

SMILES: COc1ccc(C(=O)CSc2ccccc2)cc1
- logP [8]: 2.2

SMILES: CCCCCC(C=O)(CCCC)c1oc(=O)c(CCCC)c(O)c1CCCC (stereo not given)
- logP [9]: 1.52

SMILES: Cc1ccc(SCC(=O)c2ccc(C)cc2)cc1
- logP [8]: 3.19

SMILES: Nc1ccn([C@@H]2O[C@H](COC(=O)c3ccccc3)[C@@H](O)[C@@H]2O)c(=O)n1
- logD [10]: 0.5

SMILES: CCCCC(C#N)(Cn1cncn1)c1ccc(Cl)cc1 (stereo not given)
- logP [11]: 3.16

SMILES: Cc1ccc(C(c2ccc(Cl)cc2)C(Cl)(Cl)Cl)cc1 (stereo not given)
- logP [2]: 4.47

SMILES: O=C(O)Cc1ccc(OCc2ccccc2)cc1
- logD [12]: 2.85

SMILES: CCOP(=S)(Oc1ccc(C)cc1)c1ccccc1 (stereo not given)
- logD [13]: 2.22

SMILES: CCCCCN1C(=O)CCC(N2C(=O)c3ccccc3C2=O)C1=O (stereo not given)
- logD [14]: 3.01

SMILES: COP(=O)(OC)C(=O)Nc1ccn(C2CSC(COC(=O)P(=O)(OC)OC)O2)c(=O)n1 (stereo not given)
- logD [15]: 0.72

SMILES: CCCCCc1onc(C)c1N=C1C=C(O)C(=O)c2ccccc21
- logP [16]: 3.25

SMILES: CCCCCCCCc1ccncc1
- logP [17]: 5.42

SMILES: CN1CCN(c2ncc(-c3ccncc3)cc2C#N)CC1
- logP [18]: 2.96

SMILES: NS(=O)(=O)c1ccc(-n2cc(-c3ccccc3)nn2)cc1
- logP [19]: 2.3

SMILES: Cc1ccc(C(=O)c2ccc(CC(=O)O)n2C)cc1
- logD [20]: 2.79

SMILES: Nc1ccn([C@@H]2O[C@H](COC(=O)c3cccnc3)[C@@H](O)[C@@H]2O)c(=O)n1
- logD [10]: -0.6

SMILES: COC(=O)c1c(C)[nH]c(-c2ncccc2Cl)c1C(=O)OC
- logP [6]: 1.51

SMILES: COc1ccc(C(=O)c2ncc(C(=O)O)n2C)cc1
- logD [21]: 2.01

SMILES: O=C1CN=C(c2ccccn2)c2cc(Br)ccc2N1
- logP [22]: 2.05

SMILES: CC(C(=O)O)c1cccc(C(=O)c2ccccc2)c1 (stereo not given)
- logD [20]: 3.12

SMILES: COc1ccc(C(=O)CC2OC(=O)c3ccccc32)cc1OC (stereo not given)
- logP [23]: 2.61

SMILES: CN1C(=O)CCC(N2C(=O)c3ccccc3C2=O)C1=O (stereo not given)
- logD [14]: 1.15

SMILES: CCN(CC)C(=O)[C@@H]1[C@@H](C(=O)N(CC)CC)[C@H]2C=C[C@@H]1C2
- logP [24]: 1.16

SMILES: CC(C)CC(O)C(O)C(N)NC1CCCCC1 (stereo not given)
- logP [25]: 1.86

SMILES: C=CCOc1ccccc1C(=C)n1ccnc1
- logP [1]: 2.74

SMILES: O=C(CC1OC(=O)c2ccccc21)c1ccccc1 (stereo not given)
- logP [23]: 2.96

SMILES: CC(=O)c1cc(C(C)(C)C)ccc1OCC(O)CN (stereo not given)
- logP [26]: 0.38

SMILES: O=C1c2ccccc2C(=O)c2c(O)cccc21
- logP [27]: 3.52

SMILES: CCN(CC)C(=O)C1C2CC3C(OC(=O)C31)C2O (stereo not given)
- logP [24]: 0.15

SMILES: CCCCCCCCCc1ccncc1
- logP [17]: 6.11

SMILES: CCOP(=O)(CC(=O)Nc1ccn(C2CSC(CO)O2)c(=O)n1)OCC (stereo not given)
- logD [15]: 0.99

SMILES: CC(=O)OCOc1ccccc1C(=O)NCN1CCOCC1
- logD [28]: 0.27

SMILES: CCCCc1c(C)oc(=O)c(CCCC)c1O
- logP [9]: 0.79

SMILES: Cc1noc(C)c1NC1=CC(=O)C(=O)c2ccccc21
- logP [16]: 1.51

SMILES: COc1cc(CC(=O)O)ccc1OCCCC(C)C
- logD [12]: 3.3

SMILES: O=C(NC1CCN(CCF)CC1)c1ccc(I)cc1
- logP [29]: 2.57

SMILES: Cc1ccc(C(=O)c2ncc(C(=O)O)n2C)cc1
- logD [21]: 2.25

SMILES: CCCC(=O)OCOc1ccccc1C(=O)NCN1CCOCC1
- logD [28]: 1.34

SMILES: CCCNC(C)C(=O)Nc1ccccc1C (stereo not given)
- logP [30]: 2.11

SMILES: NS(=O)(=O)c1ccc(-c2cn([C@@H]3O[C@H](CO)[C@@H](O)[C@H](O)[C@H]3O)nn2)cc1
- logP [19]: -0.1

SMILES: CCCC(=O)OCn1cnc(CSCCNC(=NC#N)NC)c1C
- logD [31]: 1.6

SMILES: CCN(CC)CCOC(=O)c1ccc(N)cc1Cl
- logP [30]: 2.86

SMILES: CC(NC(=O)N(CCCl)N=O)C(=O)NC1CC(C)(C)N(O)C(C)(C)C1 (stereo not given)
- logP [32]: 1.28

SMILES: CC(C)(C)C(O)C(Oc1ccc(Cl)cc1)n1cncn1 (stereo not given)
- logP [11]: 3.05

SMILES: CNC(=NC#N)NCCSCc1ncn(COC(=O)C(C)(C)C)c1C
- logD [31]: 1.81

SMILES: COc1cc(Cc2cnc(N)nc2N)cc(OC)c1Oc1ccc(N)cc1
- logD [33]: 0.9

SMILES: Cc1nc(NCCN)c(C#N)cc1-c1ccncc1
- logP [18]: 1.91

SMILES: Nc1ccc(S(=O)(=O)Nc2ccnn2-c2ccccc2)cc1
- logP [34]: 1.35

SMILES: CC1(C)CC(NC(=O)CNC(=O)N(CCCl)N=O)CC(C)(C)N1O
- logP [32]: 1.23

SMILES: Cc1nonc1-c1ccc(OCCCc2c[nH]cn2)cc1
- logP [3]: 2.92

SMILES: O=C1CN(O)C(c2ccccc2)=c2cc(Cl)ccc2=N1
- logD ([22]; pH 4.0): 1.49

SMILES: COc1cc(Cc2cnc(N)nc2N)cc(OC)c1C
- logD [33]: 2.14

SMILES: c1ccc2c(c1)-c1cccc3cccc-2c13
- logP [27]: 5.15

SMILES: O=c1[nH]c(Nc2ccccc2)nc2c1ncn2CC(O)CSCCO (stereo not given)
- logD [5]: 0.83

SMILES: O=C1c2c(O)cc(O)cc2O[C@H](c2ccc(O)c(O)c2)[C@H]1O
- logP [34]: 1.4

SMILES: CN(C(=O)CCC(N)=O)c1ccc(S(=O)(=O)N(C)C)cc1
- logP [4]: -0.56

SMILES: CC(C)CC(O)C(O)C(CC1CCCCCC1)NC(=O)CN (stereo not given)
- logP [25]: 1.52

SMILES: CCOP(=S)(Oc1ccccc1)c1ccccc1 (stereo not given)
- logD [13]: 1.79

SMILES: CC(=O)c1cc(C(C)C)ccc1OCC(O)CN (stereo not given)
- logP [26]: 0.1

SMILES: O=C(NC1CCN(CCO)CC1)c1ccc(I)cc1
- logP [29]: 1.93

SMILES: N#Cc1ccc(OCC2CCN(CCCF)CC2)cc1
- logP: 2.8
